The term inhibition denotes the change of the read-out against control, counted positive when it falls. A high value points to a response far below the control.

Experimental findings from patent US8673965B2, “Composition for the treatment of arthritis containing a dibenzo-p-dioxin derivative as the active ingredient” (Livechem, Inc., priority 2008, dated 2014) are described below.

In one assay the test system is AP-1. In words: AP-1-luciferase reporter in IL-1α-stimulated rabbit articular cartilage tissue. It is filed as cell-based. The conditions noted are these: 10 μg/mL, 5 ng/mL rhIL-1α; for inhibition at 10 µg/mL: Oryctolagus cuniculus, AP1, luciferase activity. The method, then: (§1) A five-week-old rabbit was killed, from the hock joint of which the articular cartilage was then taken. The articular surface (200˜220 mg/joint) was placed in a complete medium (DMEM, supplemented with heat inactivated 5% FBS; penicillin 100 U/mL; streptomycin 100 μg/mL) under sterile conditions. It was washed three or four times and then incubated at 37° C. for about 1˜2 days under sterile conditions and under 5% CO2/95% air conditions, after which AP-1-luciferase or NFkB-luciferase reporter plasmid DNA (each 0.5 μg: Stratagene) was transfected into the incubated tissue using a Lipofectamin transfection reagent (Invitrogen, Carlsbad, Calif., U.S.A.). After 24 hours, the complete medium was exchanged with a basic medium (DMEM, supplemented with heat inactivated 1% FBS, 10 mM HEPES, penicillin 100 U/mL, streptomycin 100 μg/mL). […] After 1 hour, the culture medium of each group was treated with 5 ng/mL rhIL-1α (R&D systems, Minneapolis, USA). Then, the culture medium was incubated at […] under 5% CO2/95% air conditions for 60 hours, and then treated with a lysis buffer (0.1M potassium phosphate buffer, pH 7.8/1% Triton X-100/1 mM DTT/2 mM EDTA), and the luciferase activity in the culture medium was measured using a luminometer (Monolight 2010).
(In a reporter assay the amount or activity of a reporter protein is the signal.)

The next assay has as its system NF-kB. Put plainly: NFkB-luciferase reporter in IL-1α-stimulated rabbit articular cartilage tissue. It counts as cell-based. The note with it: 10 μg/mL, 5 ng/mL rhIL-1α. The method, then: as §1
Another assay concerns arthritis induced rabbit. In words: External-use compositions in collagenase arthritis induced rabbit. It counts as in vivo. The conditions noted are these: for Heating score / Limping score / Reddening score / Swelling score: score 0-3; for Max. Effect during Treatment: (total score 7th day − 14th day)/7th day; for Total Treatment Effect: (total score 7th day − 21st day)/7th day; for Healing Effect upon Discontinuation of Treatment: (total score 14th day − 21st day)/14th day. The method, then: The composition of a carrier used to absorb the active ingredient into the skin was made referring to Bookman et al (Can. Med. Assoc. J. 171(4) 333-338 (2004)).
In order to induce arthritis in the rabbit, six test groups were set up, and five rabbits were randomly assigned into each group. A collagenase solution (4 mg/mL, saline) was filtered with a 0.22 μm membrane. 2.5˜3.0 kg weighed rabbits assigned into six test groups were anesthetized with tiletamine-zolazepam (Zoletil 50, Virbac, France). The region around the right knee joint of each rabbit was shaved and disinfected, after which the articular cavity thereof was injected with 0.25 mL of saline in one test group and 0.25 mL of the collagenase solution in the other five test groups (Choi, et al. Osteoarthritis and Cartilage 10, 471-478 (2002)). […] This model has been adopted because it is similar to the degeneration of the cartilage tissue in the human degenerative arthritis.
From the 7th day, 0.3 mL of each of the external-use compositions of Table 3 was sufficiently applied two times per day for 7 days to the affected part of the five test groups treated with the collagenase solution, and no treatment was performed for the following 7 days in order to evaluate the fundamental healing effects. The swelling, reddening, heat and limping of the articular part were quantitatively evaluated on the day (0th day) immediately before collagenase treatment, the 7th day, the 14th day and the 21st day, using the evaluation criteria comprising 0 (normal), 1 (low), 2 (middle), 3 (high). In order to objectively evaluate the effects of respective treatment solutions, the total score at each evaluation was compared, and “maximum effect during treatment”, “total treatment effect”, “healing effect upon discontinuation of treatment” were calculated by the following equations.
(1) Maximum effect during treatment=(total score on 7th day−total score on 14th day)/total score on 7th day,
(2) Total treatment effect=(total score on 7th day−total score on 21st day)/total score on 7th day,
(3) Healing effect upon discontinuation of treatment=(total score on 14th day−total score on 21st day)/total score on 14th day.

Setting [1] is: 7th Day (before treatment), 1.5% active, 0.3 mL twice daily topical.
The mark [2] stands for this setting: 14th Day (end of 7-day treatment).
The mark [3] stands for this setting: 21st Day (7 days after discontinuation).

In the case of `Cc1ccc(-c2cc(C(F)(F)F)nn2-c2ccc(S(N)(=O)=O)cc2)cc1` [Celecoxib, celecoxib], 10 µg/mL produced 23% inhibition with AP-1. Moreover, the “NF-kB Activity Inhibition (%)” value in the assay on NF-kB was 10%.

On to `O=C(O)Cc1ccccc1Nc1c(Cl)cccc1Cl` [Dichlofenac, dichlofenac], for which the “AP-1 Activity Inhibition (%)” value with AP-1 was found to be 34%. The “NF-kB Activity Inhibition (%)” value in the assay on NF-kB is 32%.

`CC(C(=O)O)c1cccc(C(=O)c2ccccc2)c1` (stereo not shown) [Ketoprofen, ketoprofen] had an inhibition at 10 µg/mL in the assay with AP-1 of 22%. Moreover, in the assay with NF-kB, the “NF-kB Activity Inhibition (%)” value is reported as 12%.

With `CC(=O)Oc1ccccc1C(=O)O` [Aspirin, aspirin], in the assay on AP-1, the inhibition at 10 µg/mL came to 46%. Also, the “NF-kB Activity Inhibition (%)” value in the assay on NF-kB is listed as 48%. In the assay with arthritis induced rabbit (7th Day (before treatment)), this compound came in with a Heating score of 3.0 ± 0.00, a Limping score of 2.8 ± 0.45 and a Reddening score of 2.8 ± 0.45. The same compound yielded a Swelling score in the assay with arthritis induced rabbit (setting [1]) of 3.0 ± 0.00. For the same compound, in the assay on arthritis induced rabbit (14th Day), the “Total Score” value came out at 6.0 ± 0.71, the Heating score was 1.4 ± 0.55, the Limping score came to 1.4 ± 0.55 and the Reddening score is listed as 1.6 ± 0.55. This compound also displayed a Swelling score in the assay with arthritis induced rabbit (setting [2]) of 1.6 ± 0.55. In the assay on arthritis induced rabbit (21st Day), the “Total Score” value came out at 5.0 ± 1.0, the Heating score was 1.2 ± 0.45, the Limping score is listed as 1.2 ± 0.45 and the Reddening score is on record as 1.4 ± 0.55. For the same compound, in the assay on arthritis induced rabbit (setting [3]), the Swelling score stood at 1.2 ± 0.45. Moreover, in the assay on arthritis induced rabbit, the “Max. Effect during Treatment” value is listed as 48.3%, the “Total Treatment Effect” value is reported as 56.9% and the “Healing Effect upon Discontinuation of Treatment” value was 16.7%.

Consider `O=C([O-])Cc1ccccc1Nc1c(Cl)cccc1Cl.[Na+]` [Dichlofenac Sodium], for which, in the assay on arthritis induced rabbit (7th Day (before treatment)), the “Total Score” value is reported as 11.4 ± 1.34, the Heating score was determined as 2.8 ± 0.45, the Limping score came to 3.0 ± 0.00 and the Reddening score is listed as 2.8 ± 0.45. The Swelling score in the assay with arthritis induced rabbit (setting [1]) stood at 2.8 ± 0.45. In addition, in the assay with arthritis induced rabbit (14th Day), the “Total Score” value stood at 5.8 ± 1.3, the Heating score turned out to be 1.4 ± 0.55, the Limping score worked out at 1.6 ± 0.55 and the Reddening score worked out at 1.4 ± 0.55. The same compound came in with a Swelling score in the assay with arthritis induced rabbit (setting [2]) of 1.4 ± 0.55. Further, in the assay with arthritis induced rabbit (21st Day), the “Total Score” value was determined as 5.4 ± 0.55, the Heating score is 1.2 ± 0.45, the Limping score is 1.4 ± 0.55 and the Reddening score came out at 1.4 ± 0.55. Further, the Swelling score in the assay on arthritis induced rabbit (setting [3]) came to 1.4 ± 0.55. Moreover, in the assay with arthritis induced rabbit, the “Max. Effect during Treatment” value is on record as 49.1%, the “Total Treatment Effect” value was found to be 52.6% and the “Healing Effect upon Discontinuation of Treatment” value is given as 6.9%.

With `CC(C)Cc1ccc(C(C)C(=O)O)cc1` (stereo not shown) [Ibuprofen, ibuprofen], testing at 10 µg/mL in the assay with AP-1 gave an inhibition of 27%. The “NF-kB Activity Inhibition (%)” value in the assay with NF-kB was 23%.

Take `COc1ccc2c(c1)c(CC(=O)O)c(C)n2C(=O)c1ccc(Cl)cc1` [Indomethacin, indomethacin]: 10 µg/mL produced 34% inhibition in the assay with AP-1.
